The Solubility is the dissolved amount per volume that the medium holds. High values mean a readily soluble substance, low ones a poorly soluble substance. Broadly, the IC50 is the concentration needed to halve the response being measured. Read a low IC50 as greater potency in that assay.

Consider 4 compounds from patent US5296487A, “Quinazoline derivatives and their preparation” (priority 1990, dated 1994).

Each structure is given as a SMILES string. In brackets after ≈: the same amount, converted by molar mass. Structures can show the parent of a compound that is named as a salt.

The nature of data set [1]: Stability (storage at accelerated conditions). It is filed as physicochemical. The note with it: for Residual Amount (%): 12960 min. On the procedure: Test Compounds were stored for 9 days at accelerated conditions as shown in the following table, and the residual amounts of them were determined by a High Performance Liquid Chromatography (HPLC).
The nature of data set [2]: Solubility of the test compounds in various solvents. It is filed as physicochemical. The note with it: for Solubility: ambient temperature. On the procedure: The solubility of the test compounds in various solvents was measured at ambient temperature.
The nature of data set [3]: Effect on Renal Blood Flow. It is filed as in vivo, Male beagle dogs. The note with it: 10 μg/kg i.v., anesthetized dogs. On the procedure:
Test 6 Effect on Renal Blood Flow
Male beagle dogs, weighing 7-12 kg were anesthetized with sodium pentobarbital (30 mg/kg i.v.). The left renal artery was exposed retroperitoneally through a flank incision, and an electromagnetic flowmeter probe were placed around the left renal artery to measure renal blood flow.

A short description of data set [4]: Effect on Plasma Triglyceride Level. Particulars: dose 10 mg/kg/day, orally once a day for two weeks; STZ-induced diabetic rats. It is filed as in vivo, Male SD rats. On the procedure: Test 7 [Effect on Plasma Triglyceride Level]
Male SD rats weighing 180-230 g were made diabetic by intravenous administration of streptozotocin (STZ) at a dose of 60 mg/kg dissolved in 2 mM citrate buffer (pH 4.5). One week later, the rats were grouped by plasma triglyceride level and test compound were administered orally once a day for two weeks. Then blood samples were collected from orbital vein, and plasma triglyceride levels were measured enzymatically (Triglyceride G-Test WAKO). Control group received 0.5% methyl cellulose.

Another data set concerns the target T1, DA2 receptor (Rattus norvegicus, UniProt P61169).
T1 construct: the striatum were dissected from their brains; from tissue; host or cells: rat striatum (male rats, 150-300 g), washed homogenate pellet
The data set is described as follows: Dopamine receptor (DA2 receptor) binding assay. On the procedure: Test 1 Dopamine receptor (DA2 receptor) binding assay
The affinity for DA2 receptor of a Test Compound was determined following in vitro receptor binding assays.
Male rats weighing 150-300g were decapitated and the striatum were dissected from their brains. The tissue was homogenized in 30 volumes of buffer which consisted of 50 mM Tris-HCl (pH 7.4 at 25° C.), 120 mM sodium chloride, 5 mM potassium chloride, 1 mM calcium chloride, 1 mM magnesium chloride, 10 μM pargirine, and 0.1% ascorbic acid. The homogenate was centrifuged at 50,000 g for 15 minutes. The pellet was resuspended in 30 volumes of the buffer. The tissue suspension was centrifuged and suspended again in the same way.
Incubation tubes received 100 μl of [phenyl-4-^3 H]spiperone, 100 μl of the Test Compound and 0.8 ml of tissue suspension during binding assays. The concentration of [phenyl-4-^3 H]spiperone was 0.2 nM. The final tissue concentration of rat striatum was 160 μg/ml. […] The filters were counted by liquid scintillation counter.
Specific binding of the [^3 H]spiperone was determined in the presence of 1 μM butaclamol. The IC50 value of the Test Compound was calculated from the data of [^3 H]spiperone binding in the present of 10^-9 M, 10^-8 M, 10^-7 M and 10^-6 M Test Compound.

Data set [5] relates to reserpine-induced DOPA accumulation. The data set is described as follows: Inhibition of reserpine-induced DOPA accumulation. Particulars: dose 3.2 mg/kg, orally, 2 hours before sacrifice; striatum. It is filed as in vivo, Male SD rats. On the procedure:
Test 2 [Inhibition of reserpine-induced DOPA accumulation]
Male SD rats weighing 300-400 g were used in this test. Rats were pretreated with reserpine (1 mg/kg, S.C.) 17-19 hours before sacrifice and then fasted. Test Compound was given orally to the rats 2 hours before sacrifice. [m-Hydroxybenzylhydrazine (100 mg/kg, i.p.) was given 30 minutes before sacrifice.] Each rat was exposed to microwaves using a head-focus microwave applicator for 1.5 seconds. The whole brain was removed and further separated into the striatum.
DOPA was determined as follows; the striatum was homogenized in 9 volumes of 0.1N perchloric acid solution (0.4% EDTA·2Na). The homogenate was centrifuged at 10,000 rpm for 1 minutes. The supernatant was applied to high performance liquid chromatography.

A short description of data set [6]: Hypotensive effect on spontaneous hypertensive rats. It is filed as in vivo, male spontaneous hypertensive rats. Particulars: dose 0.32 mg/kg, orally. On the procedure:
Test 3 [Hypotensive effect on spontaneous hypertensive rats] 15 to 25-Week-old male spontaneous hypertensive rats with mean arterial blood pressure of about 160-200 mmHg, weighing 300-350 g, were used. The animals were cannulated in the left femoral artery and the mean blood pressure and heart rate were measured with a pressure-transducer. The animals were deprived of food for about 18 hours before oral dosing. The Test Compound was suspended in 0.5% methylcellulose, and given orally.

A further data set concerns the target α1-adrenoceptor. The experiment in a line: α1-adrenoceptor binding assay. Particulars: 3H-Prazosin binding, rat whole brain membranes. On the procedure:
Test 5 [α1-adrenoceptor binding assay]
Male Wistar rats (200-250 g) were killed by decapitation and the brain was placed in ice-cold buffer (0.25 M sucrose, 5 mM Tris/HCl, 1 mM MgCl2, pH 7.5).
Whole brain was homogenized in 10-20 volume (w/v) of ice-cold buffer for 20 strokes using a motor-drived Teflon-glass homogenizer. The homogenate was centrifuged at 1,000 g for 10 min at 4° C., and the pellet was discarded. The supernatant was centrifuged at 30,000 g for 20 min at 4° C. The pellet obtained was washed by
resuspension in 20 ml ice-cold 50 mM Tris/HCl, 10 mM MgCl2 buffer (pH 7.5) and recentrifuged at 30,000 g for 20 min at 4° C. The final pellet was resuspended in 15 volumes of original wet weight of 50 mM Tris/HCl, 10 mM MgCl2 buffer (pH 7.5) for use in the assays.
For ^3 H-Prazosin binding to rat brain, membrane suspensions prepared from rat whole brain (0.3-0.4 mg protein) were incubated by constant shaking for 20 min at 30° C. with ^3 H-Prazosin ([…]) and increasing concentrations of test compounds (10^-6 -10^-9 M) in a total volume of 550 μl of 50 mM Tris/HCl, 10 mM MgCl2 buffer containing 0.1 mg/ml bovine serum albumin (pH 7.5). […] These filter disks were counted by liquid scintillation counter with an efficacy of 40%. […] The concentration of the test compound inhibiting 50% of the specific binding of ^3 H-Prazosin was calculated by log profit analysis of the binding data.

Setting [7] is: 70° C./75% Relative Humidity, 9 days, HPLC.

T1 sequence (P61169 whole entry): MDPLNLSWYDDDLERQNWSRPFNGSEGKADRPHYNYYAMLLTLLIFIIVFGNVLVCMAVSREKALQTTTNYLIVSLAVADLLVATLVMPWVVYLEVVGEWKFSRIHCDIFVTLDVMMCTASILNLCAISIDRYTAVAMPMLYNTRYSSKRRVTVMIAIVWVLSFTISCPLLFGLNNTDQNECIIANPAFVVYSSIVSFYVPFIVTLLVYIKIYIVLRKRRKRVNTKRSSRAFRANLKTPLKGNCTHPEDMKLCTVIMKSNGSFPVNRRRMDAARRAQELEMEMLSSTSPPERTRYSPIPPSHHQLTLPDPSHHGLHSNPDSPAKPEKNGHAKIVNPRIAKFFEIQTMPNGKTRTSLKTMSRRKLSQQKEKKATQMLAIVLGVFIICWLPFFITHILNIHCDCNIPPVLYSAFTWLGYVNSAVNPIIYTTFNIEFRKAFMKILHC

Consider `CCS(=O)(=O)Nc1ccc2[nH]c(=O)n(CCCCN3CC=C(c4ccccc4)CC3)c(=O)c2c1` [Compound D, 6-ethylsulfonylamino-3-[4-(4-phenyl-1,2,3,6=tetrahydropyridin-1-yl)butyl]-1,2,3,4=tetrahydroquinazoline-2,4-dione sulfate], for which the “stability (in words)” value in data set [1] is “better solubility and stability”. Further, the “Residual Amount (%)” value in data set [1] (70° C., 9 days, HPLC) is reported as 98.2%; in data set [1] (setting [7]) it was 99.7%. For the same compound, the Solubility in data set [2] (isotonic saline) is 183 µg/mL; in data set [2] (water), 733 µg/mL. Further, the “solubility (in words)” value in data set [2] (versus the product of Example 32) is reported as “better solubility”.

As to `CCS(=O)(=O)Nc1ccc2[nH]c(=O)n(CCCCN3CC=C(c4ccccc4)CC3)c(=O)c2c1` [Compound C, 6-Ethylsulfonylamino-3-[4-(4-phenyl-1,2,3,6-tetrahydropyridin-1-yl)butyl]-1,2,3,4-tetrahydroquinazoline-2,4-dione], the “RBF (% change)” value in data set [3] is “+29 % change”. In data set [4], the plasma triglyceride is 138.2 ± 47.0 mg/dL. Also, the remaining at 216 h in data set [1] (70° C., 9 days, HPLC, read-out: Residual Amount (%)) stood at 83.4%. The “Residual Amount (%)” value in data set [1] (setting [7]) was determined as 69.6%. Moreover, the Solubility in data set [2] (isotonic saline) came to 9.41 µg/mL (≈ 19.5 µM); in data set [2] (water), 7.4 µg/mL (≈ 15.3 µM).

In the case of `O=c1[nH]c2cc(NO)ccc2c(=O)n1CCCCN1CC=C(c2ccccc2)CC1` [Compound A, 7-hydroxyamino-3-[4-(4-phenyl-1,2,3,6-tetrahydropyridin-1-yl)butyl]-1,2,3,4-tetrahydroquinazoline-2,4-dione], the figures for the IC50 at DA2 receptor and at α1-adrenoceptor were 8.1 nM and 20 nM, respectively. The “Inhibition (%)” value in data set [5] is 33%. Also, the “Maximum decrease of blood pressure (%)” value in data set [6] is listed as 34%.

`CS(=O)(=O)Nc1ccc2[nH]c(=O)n(CCCCN3CC=C(c4ccccc4)CC3)c(=O)c2c1` [Compound B, 3-[4-(4-phenyl-1,2,3,6-tetrahydropyridin-1-yl)butyl]-6-methylsulfonylamino-1,2,3,4-tetrahydroquinazoline-2,4-dione]: the IC50 on α1-adrenoceptor came to 38 nM. That is a double-digit nanomolar value.
